Holding throughout (type): in vivo
Data set [1] in a line: acute toxicity, single oral administration to mice. The note with it: mouse, in vivo. The source says: (§1) In the Table which follows are compiled the ED50 values obtained in this test with representative compounds of formula I. The Table also contains data relating to the acute toxicity of the compounds, that is, LD50 in mg/kg in the case of single oral administration to mice.

Data set [2] in a line: "writhing test" (analgesic activity). Conditions: p.o.; for ED50: Mus musculus, po.
From the text: as §1
Background: An intraperitoneal irritant provokes the stretching counted in writhing tests.

Data set [3] concerns mice. Kind of data set: acute toxicity, single oral administration to mice.
From the text: as §1

Counter-ions that a name gives are not always drawn.

The LD50 is the dose at which mortality reaches 50%. Low values mean a more toxic substance, high ones a less toxic substance. The ED50 is the midpoint of the dose-response relation. A high value points to weaker potency. Regarding `CN(C)CCC1(c2cccc(O)c2)C=CCCC1` (racemic) [rac. 1-(m-Hydroxyphenyl)-N,N-dimethyl-2-cyclohexene-1-ethylamine hydrochloride], the LD50 in data set [1] lay within 250 to 500 mg/kg. Moreover, the ED50 in data set [2] (0.5 h, after 30 min.) worked out at 41 mg/kg; in data set [2] (1 h, after 60 min.) it was 26 mg/kg.

`COc1cccc(C2(CCN(C)C)C=CCCC2)c1` (racemic) [rac. 1-(m-methoxyphenyl)-N,N-dimethyl-2-cyclohexene-1-ethylamine hydrochloride] gave an LD50 in data set [1] of 150 to 300 mg/kg. The ED50 was found to be 33 mg/kg in data set [2] (0.5 h, after 30 min.) and 35 mg/kg in data set [2] (1 h, after 60 min.).

Turning to `COc1cccc(C2(CCN(C)C)C=CCCC2)c1.Cl` (single isomer, unassigned; (+)) [(+)-1-(m-Methoxyphenyl)-N,N-dimethyl-2-cyclohexene-1-ethylamine hydrochloride], in data set [1], the LD50 fell in the range of 250 to 500 mg/kg. Further, it took a dose of 24 mg/kg to reach the 50% effect level in data set [2] (1 h, after 60 min.) (ED50).

Regarding `COc1cccc(C2(CCN(C)C)C=CCCC2)c1.Cl` (single isomer, unassigned; (-)) [(-)-1-(m-Methoxyphenyl)-N,N-dimethyl-2-cyclohexene-1-ethylam] [(-)-1-(m-Methoxyphenyl)-N,N-dimethyl-2-cyclohexene-1-ethylamine hydrochloride], the LD50 in data set [3] is 250 to 500 mg/kg. For the same compound, the “ED50 in the "writhing test"” value in data set [2] (after 60 min., hydrochloride, 60 min) amounted to 19 mg/kg.

The values are drawn from patent US4336268A, “Cyclohexene derivative analgesics” (Hoffmann-La Roche Inc., priority 1980, dated 1982).
